“Also recorded” adds a separate entry of the source.
Columns and labels:
[1] = test system: ShHTL7-ShMAX2 interaction; experiment: Yeast two-hybrid assay ShHTL7-ShMAX2; format: cell-based, Striga hermonthica
Method: (§1) To construct plasmids for yeast two-hybrid assays, the CDS of ShHTL7 and AtD14 were cloned into yeast expression vector pBrigde to generate BD-ShHTL7 and BD-AtD14, and the CDS of ShMAX2, AtMAX2, SMAX1 were cloned into pGADT7 to make Gal4 DNA activation domain (AD) constructs, respectively. Primers used for yeast expression vector construction are listed in Supplementary Table 6. Yeast two-hybrid assays were performed using the Yeastmaker Yeast Transformation System 2 (Clontech). In brief, Yeast AH109 cells were co-transformed with specific bait and prey constructs and coated on selective growth medium SD/-Leu-Trp for 3 days at 30 °C, pick the positive constructs into liquid selective growth medium SD/-Leu-Trp shaking for 36 h at 30 °C. Washed yeast cells three times and diluted, made sure OD600 reached 2.5, then serial 10-fold dilutions of yeast cultures were spotted onto selective growth mediums that were supplemented with different concentrations of rac-GR24 and tested molecules, respectively. All yeast transformants were grown on a selective growth medium at 30 °C for 3 days.

[2] = test system: ShHTL7-AtMAX2 interaction; experiment: Yeast two-hybrid assay ShHTL7-AtMAX2; format: cell-based, Striga hermonthica
Method: as §1

ShHTL7S95A = experiment: Hydrolysis reaction analysis with ShHTL7 S95A mutant; format: biochemical, Striga hermonthica; conditions: Supplementary Figs. 20a, 24a
Method: Compounds 4a, (R)- and (S)-4a, 4g-i, and rac-GR24 were dissolved in DMSO and prepared as stock solution ([…]) just before use. A 200 μL of the reaction solution consisting of PBS buffer (pH 7.3), 10 μM samples, and 10 μg recombinant ShHTL7 or its mutants was incubated at 30 °C for 30 min; with the reaction solution (200 μL) containing PBS buffer (pH 7.3) and 10 μM samples as the blank control[40],[52]. Subsequently, the reaction was terminated by adding 200 μL of methanol, and then the reaction mixture was shaken for 10 s and centrifuged at 5310 × g for 60 s. The supernatant was filtered and the remaining amount of samples was analyzed by HPLC. The relative percentages of hydrolysis were obtained by using the amount of compounds in blank control as reference.
Supplementary Fig. 20. Effect of key amino acid residues on the hydrolysis of ShHTL7 and binding affinity. a, Relative percentage of hydrolysis of compound (S)-4a by ShHTL7S95A, ShHTL7H246A, and ShHTL7. The error bar indicates SD (n = 3 biologically independent experiments). b, Competitive mutants of ShHTL7 inhibitory activity in YLG assay. Data are the means ± SD (n = 3 biologically independent experiments).
(1 picture or pasted object on this page, not shown here) […]

ShHTL7 T142K = ShHTL7 T142K (Striga hermonthica, UniProt A0A0M3PNA2, T142K); experiment: YLG competitive inhibition, ShHTL7 mutant T142K; format: biochemical
From the text: (§2) To clarify the dynamics of how the catalytic triad affects hydrolysis by ShHTL7, we performed MD simulations to study the differences between (R)-4a and (S)-4a (Supplementary Fig. 21). […] To further characterize our computational models, we performed mutation studies of the key residues in the active pockets that may have interactions with our molecules. Indeed, a number of the mutations of specific residues altered the IC50 values, supporting our simulated models (Supplementary Fig. 20b).
(§3) The excitation and emission wavelengths of YLG are 480 and 520 nm, respectively. We used a fluorescence spectrophotometer (CARY Eclipse) to detect the fluorescence intensity change of YLG during the enzymatic hydrolysis assay process. All the testing compounds and YLG were dissolved in DMSO and prepared as stock solutions just before use. […] The changes of fluorescence at 520 nm of each well were recorded every 1 min for 30 min. Using the reaction mixture without adding enzyme and tested compounds as the background control. After subtracting the background hydrolysis, a linear fluorescence increase in 8 min was used for further inspection. The IC50 values were determined via fitting relative inhibition percentages with the varying concentrations of compounds in Microsoft Excel.
(§4) Supplementary Fig. 20. […]

ShHTL7 T121S = ShHTL7 T121S (Striga hermonthica, UniProt A0A0M3PNA2, T121S); experiment: YLG competitive inhibition, ShHTL7 mutant T121S; format: biochemical
From the text: as §2, §3, §4

ShHTL7 L161M = ShHTL7 L161M (Striga hermonthica, UniProt A0A0M3PNA2, L161M); experiment: YLG competitive inhibition, ShHTL7 mutant L161M; format: biochemical
From the text: as §2, §3, §4

ShHTL7 F134A = ShHTL7 F134A (Striga hermonthica, UniProt A0A0M3PNA2, F134A); experiment: YLG competitive inhibition, ShHTL7 mutant F134A; format: biochemical
From the text: as §2, §3, §4

ShHTL7 T157A = ShHTL7 T157A (Striga hermonthica, UniProt A0A0M3PNA2, T157A); experiment: YLG competitive inhibition, ShHTL7 mutant T157A; format: biochemical
From the text: as §2, §3, §4

ShHTL7 L161A = ShHTL7 L161A (Striga hermonthica, UniProt A0A0M3PNA2, L161A); experiment: YLG competitive inhibition, ShHTL7 mutant L161A; format: biochemical
From the text: as §2, §3, §4

ShHTL7 T190G = ShHTL7 T190G (Striga hermonthica, UniProt A0A0M3PNA2, T190G); experiment: YLG competitive inhibition, ShHTL7 mutant T190G; format: biochemical
From the text: as §2, §3, §4

Sequence of ShHTL7 T142K (A0A0M3PNA2 whole entry T142K): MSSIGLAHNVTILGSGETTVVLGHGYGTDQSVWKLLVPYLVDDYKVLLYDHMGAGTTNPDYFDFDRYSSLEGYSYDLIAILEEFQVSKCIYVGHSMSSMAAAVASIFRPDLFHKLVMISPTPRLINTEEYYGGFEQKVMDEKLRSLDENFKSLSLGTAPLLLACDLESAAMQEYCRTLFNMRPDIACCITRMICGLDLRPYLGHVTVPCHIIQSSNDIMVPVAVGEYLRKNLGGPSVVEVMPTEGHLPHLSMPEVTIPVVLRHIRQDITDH
Sequence of ShHTL7 L161M (A0A0M3PNA2 whole entry L161M): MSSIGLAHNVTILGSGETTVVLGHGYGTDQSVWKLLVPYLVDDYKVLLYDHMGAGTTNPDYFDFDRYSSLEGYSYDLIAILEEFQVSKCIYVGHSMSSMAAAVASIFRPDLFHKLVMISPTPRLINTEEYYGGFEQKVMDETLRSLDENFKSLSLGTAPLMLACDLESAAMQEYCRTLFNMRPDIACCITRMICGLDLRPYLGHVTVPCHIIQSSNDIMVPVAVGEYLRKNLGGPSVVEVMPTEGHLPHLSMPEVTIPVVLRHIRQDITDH
Sequence of ShHTL7 T121S (A0A0M3PNA2 whole entry T121S): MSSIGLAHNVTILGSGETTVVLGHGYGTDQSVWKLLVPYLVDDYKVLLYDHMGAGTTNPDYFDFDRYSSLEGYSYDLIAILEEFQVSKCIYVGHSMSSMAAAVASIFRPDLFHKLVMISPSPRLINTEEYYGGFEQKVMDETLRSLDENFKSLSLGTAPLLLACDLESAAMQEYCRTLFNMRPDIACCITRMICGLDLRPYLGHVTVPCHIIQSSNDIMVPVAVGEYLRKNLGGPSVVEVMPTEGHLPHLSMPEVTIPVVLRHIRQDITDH
Sequence of ShHTL7 T190G (A0A0M3PNA2 whole entry T190G): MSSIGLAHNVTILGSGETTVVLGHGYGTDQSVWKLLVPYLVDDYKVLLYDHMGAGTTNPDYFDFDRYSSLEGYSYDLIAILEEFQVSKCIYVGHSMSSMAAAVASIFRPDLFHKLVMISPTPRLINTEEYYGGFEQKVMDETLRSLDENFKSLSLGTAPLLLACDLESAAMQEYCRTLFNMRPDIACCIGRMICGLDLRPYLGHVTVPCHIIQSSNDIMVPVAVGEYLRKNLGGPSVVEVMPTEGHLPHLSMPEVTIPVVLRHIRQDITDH
Sequence of ShHTL7 L161A (A0A0M3PNA2 whole entry L161A): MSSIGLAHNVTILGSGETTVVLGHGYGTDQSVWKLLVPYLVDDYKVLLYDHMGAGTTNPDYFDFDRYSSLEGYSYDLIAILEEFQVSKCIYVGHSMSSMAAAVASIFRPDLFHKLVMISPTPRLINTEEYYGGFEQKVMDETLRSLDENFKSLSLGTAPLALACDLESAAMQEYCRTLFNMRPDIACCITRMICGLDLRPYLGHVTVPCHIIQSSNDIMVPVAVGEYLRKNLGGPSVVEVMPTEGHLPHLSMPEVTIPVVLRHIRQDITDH
Sequence of ShHTL7 T157A (A0A0M3PNA2 whole entry T157A): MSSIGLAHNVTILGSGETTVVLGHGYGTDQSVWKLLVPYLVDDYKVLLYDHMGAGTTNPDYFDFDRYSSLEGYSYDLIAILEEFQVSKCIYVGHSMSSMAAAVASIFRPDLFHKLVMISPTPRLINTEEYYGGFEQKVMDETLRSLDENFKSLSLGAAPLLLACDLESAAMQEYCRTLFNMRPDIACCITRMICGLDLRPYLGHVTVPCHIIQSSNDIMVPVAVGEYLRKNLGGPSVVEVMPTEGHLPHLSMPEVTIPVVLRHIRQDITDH
Sequence of ShHTL7 F134A (A0A0M3PNA2 whole entry F134A): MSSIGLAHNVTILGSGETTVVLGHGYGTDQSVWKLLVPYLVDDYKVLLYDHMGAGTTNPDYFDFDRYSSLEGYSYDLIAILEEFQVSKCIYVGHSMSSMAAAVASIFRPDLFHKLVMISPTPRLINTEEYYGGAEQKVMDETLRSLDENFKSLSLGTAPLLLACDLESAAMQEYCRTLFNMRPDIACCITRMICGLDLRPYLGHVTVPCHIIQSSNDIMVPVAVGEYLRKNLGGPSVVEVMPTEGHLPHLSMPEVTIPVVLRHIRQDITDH

Row | Compound | induction of ShHTL7-ShMAX2 interaction (Y2H) ([1]; 0.01 μM (10 nM)) | induction of ShHTL7-ShMAX2 interaction (Y2H) ([1]; 1 μM) | induction of ShHTL7-AtMAX2 interaction (Y2H) ([2]; 1 μM) | induction of ShHTL7-AtMAX2 interaction (Y2H) ([2]; 200 μM) | relative percentage of hydrolysis by ShHTL7S95A, source data average (ShHTL7S95A) | induction of ShHTL7-ShMAX2 interaction (Y2H) ([1]; 200 μM) | IC50 (ShHTL7 T142K) | IC50 (ShHTL7 T121S) | IC50 (ShHTL7 L161M) | IC50 (ShHTL7 F134A) | IC50 (ShHTL7 T157A) | induction of ShHTL7-AtMAX2 interaction (Y2H) ([2]; 1 and 5 μM) | IC50 (ShHTL7 L161A) | IC50 (ShHTL7 T190G)
1 | CC1=CC(OC(=O)N2CCN(C(=O)COc3ccc(Br)cc3C)CC2)OC1=O (stereo not drawn) [4a] | could still promote the ShHTL7-ShMAX2 interaction | strongly induce the interaction | strongly induce the interaction |  |  |  |  |  |  |  |  |  |  | 
2 | CC1=CC(OC(=O)N2CCN(C(=O)COc3ccc(Br)cc3C)CC2)CC1=O (stereo not drawn) [4g] |  |  |  | only weak ligand-induced interactions | 3.871% |  |  |  |  |  |  |  |  | 
3 | CC1=CC(CC(=O)N2CCN(C(=O)COc3ccc(Br)cc3C)CC2)OC1=O (stereo not drawn) [4i] |  |  |  | almost no ligand-induced interactions were observed |  | almost no ligand-induced interactions were observed |  |  |  |  |  |  |  | 
4 | CC1=C[C@@H](OC(=O)N2CCN(C(=O)COc3ccc(Br)cc3C)CC2)OC1=O [(R)-4a] |  |  |  | did induce the interaction |  |  | 4130 nM | 4900 nM | 34300 nM | 58100 nM | 2610 nM | no ShHTL7-SMAX1 or ShHTL7-AtMAX2 interactions were detected | 100000 nM | 26400 nM
5 | CC1=C[C@H](OC(=O)N2CCN(C(=O)COc3ccc(Br)cc3C)CC2)OC1=O [(S)-4a] | could still promote the ShHTL7-ShMAX2 interaction; also recorded: promoted ShHTL7-ShMAX2 interaction | strongly induce the interaction | strongly induce the interaction |  | 1.485% |  | 203 nM | 800 nM | 666 nM | 531 nM | 170 nM |  | 155 nM | 575 nM

From publication PMC9271048, “Probing strigolactone perception mechanisms with rationally designed small-molecule agonists stimulating germination of root parasitic weeds” (Nature Communications, 2022)
